# In ChEMBL document CHEMBL5584230, “Exploring fluorine-substituted piperidines as potential therapeutics for diabetes mellitus and Alzheimer's diseases” (Eur J Med Chem, 2024):
# Values joined by “and” are separate entries in the source; they are usually repeats but may differ in a detail not shown here. Equal values may be shown once. Active and inactive are the calls of the source. The rule behind the calls is not given here.
# Tests used:
# [1] = Antioxidant activity assessed as DPPH radical scavenging activity incubated for 30 mins; assay type: functional
# [2] = Antioxidant activity assessed as ABTS radical scavenging activity; assay type: functional
# [3] = Inhibition of alpha-glucosidase (unknown origin); parameters: species or system Homo sapiens
# [4] = target: T1, Acetylcholinesterase (Homo sapiens, UniProt P22303); experiment: Inhibition of AChE (unknown origin)
# T1 sequence (P22303 whole entry): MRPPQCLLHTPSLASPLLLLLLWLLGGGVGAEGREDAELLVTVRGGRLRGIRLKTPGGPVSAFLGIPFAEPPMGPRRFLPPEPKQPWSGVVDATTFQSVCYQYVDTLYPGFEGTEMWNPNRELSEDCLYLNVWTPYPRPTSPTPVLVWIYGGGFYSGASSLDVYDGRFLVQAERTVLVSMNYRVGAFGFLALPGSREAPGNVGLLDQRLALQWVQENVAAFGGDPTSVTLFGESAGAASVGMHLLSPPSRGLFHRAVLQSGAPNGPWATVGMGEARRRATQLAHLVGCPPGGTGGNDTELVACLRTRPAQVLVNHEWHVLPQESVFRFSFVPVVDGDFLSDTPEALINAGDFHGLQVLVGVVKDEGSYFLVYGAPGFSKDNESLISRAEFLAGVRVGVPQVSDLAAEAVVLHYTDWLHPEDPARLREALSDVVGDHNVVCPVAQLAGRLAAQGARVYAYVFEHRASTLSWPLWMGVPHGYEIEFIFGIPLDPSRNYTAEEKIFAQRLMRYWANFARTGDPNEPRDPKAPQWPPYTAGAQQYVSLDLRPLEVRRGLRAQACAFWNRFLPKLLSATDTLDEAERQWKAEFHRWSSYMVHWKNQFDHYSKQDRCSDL
# [5] = target: Cholinesterase (Homo sapiens, UniProt P06276); experiment: Inhibition of BchE (unknown origin)
# Chain of Cholinesterase (P06276 whole entry): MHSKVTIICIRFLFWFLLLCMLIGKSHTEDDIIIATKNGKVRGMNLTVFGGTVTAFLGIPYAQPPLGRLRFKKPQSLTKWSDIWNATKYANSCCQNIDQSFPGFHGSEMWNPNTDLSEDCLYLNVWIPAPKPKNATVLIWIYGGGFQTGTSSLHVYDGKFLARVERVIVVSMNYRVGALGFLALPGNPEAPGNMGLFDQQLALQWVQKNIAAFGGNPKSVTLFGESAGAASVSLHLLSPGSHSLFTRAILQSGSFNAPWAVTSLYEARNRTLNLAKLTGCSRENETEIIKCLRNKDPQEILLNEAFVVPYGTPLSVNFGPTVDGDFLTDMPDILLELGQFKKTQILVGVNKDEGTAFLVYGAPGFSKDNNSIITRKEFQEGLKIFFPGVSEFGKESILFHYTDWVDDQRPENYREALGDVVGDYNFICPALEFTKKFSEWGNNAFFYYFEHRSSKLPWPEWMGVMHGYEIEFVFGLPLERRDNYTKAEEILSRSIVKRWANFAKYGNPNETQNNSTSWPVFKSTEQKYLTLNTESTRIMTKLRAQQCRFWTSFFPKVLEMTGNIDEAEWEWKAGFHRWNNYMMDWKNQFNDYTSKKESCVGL
# [6] = Acute toxicity in BALB/c mouse upto 100 mg/kg, ip administered for 72 hrs and measured after 14 days; assay type: organism-based; details: in vivo, 408 h, time 17 day
# [7] = system: Rattus norvegicus; experiment: Anti-diabetic activity in STZ-induced diabetic Sprague-Dawley rat model assessed as change in blood glucose level at 9 mg/kg, ip measured for 28 days; assay type: functional, organism-based; details: time 28.0 day
# [8] = system: Rattus norvegicus; experiment: Anti-diabetic activity in STZ-induced diabetic Sprague-Dawley rat model assessed as reduction in blood glucose level at 9 mg/kg, ip measured at day 1 (reference value: 494.14 +/- 4.15 mg/dl); assay type: functional; details: time 1 day
# [9] = system: Rattus norvegicus; experiment: Anti-diabetic activity in STZ-induced diabetic Sprague-Dawley rat model assessed as reduction in blood glucose level at 9 mg/kg, ip measured at day 7 (reference value: 490.69 +/- 3.98 mg/dl); assay type: functional; details: time 7 day
# [10] = system: Rattus norvegicus; experiment: Anti-diabetic activity in STZ-induced diabetic Sprague-Dawley rat model assessed as reduction in blood glucose level at 9 mg/kg, ip measured at day 14 (reference value: 489.44 +/- 4.18 mg/dl); assay type: functional; details: time 14 day
# [11] = system: Rattus norvegicus; experiment: Anti-diabetic activity in STZ-induced diabetic Sprague-Dawley rat model assessed as reduction in blood glucose level at 9 mg/kg, ip measured at day 21 (reference value: 503.09 +/- 4.15 mg/dl); assay type: functional; details: time 21 day
# [12] = system: Rattus norvegicus; experiment: Anti-diabetic activity in STZ-induced diabetic Sprague-Dawley rat model assessed as reduction in blood glucose level at 9 mg/kg, ip measured at day 28 (reference value: 501.71 +/- 3.91 mg/dl); assay type: functional; details: time 28 day
# [13] = system: Rattus norvegicus; experiment: Anti-diabetic activity in STZ-induced diabetic Sprague-Dawley rat model assessed as increase in body weight at 9 mg/kg, ip measured at day 1; assay type: functional, organism-based; details: time 1.0 day
# [14] = system: Rattus norvegicus; experiment: Anti-diabetic activity in STZ-induced diabetic Sprague-Dawley rat model assessed as increase in body weight at 9 mg/kg, ip measured at day 14; assay type: functional, organism-based; details: time 14.0 day
# [15] = system: Rattus norvegicus; experiment: Anti-diabetic activity in STZ-induced diabetic Sprague-Dawley rat model assessed as increase in body weight at 9 mg/kg, ip measured at day 28; assay type: functional, organism-based; details: time 28.0 day
# [16] = system: Rattus norvegicus; experiment: Anti-diabetic activity in STZ-induced diabetic Sprague-Dawley rat model assessed as reduction in cholesterol level in plasma at 9 mg/kg, ip (reference value: 218 +/- 4.41 mg/dl); assay type: functional
# [17] = system: Rattus norvegicus; experiment: Anti-diabetic activity in STZ-induced diabetic Sprague-Dawley rat model assessed as reduction in TG level in plasma at 9 mg/kg, ip (reference value: 226.19 +/- 3.97 mg/dl); assay type: functional
# [18] = system: Rattus norvegicus; experiment: Anti-diabetic activity in STZ-induced diabetic Sprague-Dawley rat model assessed as reduction in LDL level in plasma at 9 mg/kg, ip (reference value: 138.19 +/- 3.67 mg/dl); assay type: functional
# [19] = system: Rattus norvegicus; experiment: Anti-diabetic activity in STZ-induced diabetic Sprague-Dawley rat model assessed as reduction in HDL level in plasma at 9 mg/kg, ip (reference value: 21.09 +/- 1.71 mg/dl); assay type: functional
# [20] = species on record: Homo sapiens; experiment: Competitive inhibition of alpha-glucosidase (unknown origin) […] using p-nitrophenyl glucopyranoside as substrate assessed as increase in Km with constant Vmax upto 180 uM using varying concentrations of substrate measured for 20 mins by Lineweaver-Burk plot analysis
# [21] = Inhibition of alpha-glucosidase (unknown origin) using p-nitrophenyl glucopyranoside as substrate assessed as inhibition constant by Lineweaver-Burk plot analysis; parameters: species or system Homo sapiens
# [22] = target: T1, Acetylcholinesterase; experiment: Mixed type inhibition of AChE (unknown origin) using […] assessed as effect on Vmax and Km at 1.95 to 7.8 uM by Lineweaver-Burk plot analysis; details: dose 1.95-7.8 µM
# [23] = target: T1, Acetylcholinesterase; experiment: Inhibition of AChE (unknown origin) using […] assessed as inhibition constant by Lineweaver-Burk plot analysis
Compound,IC50 [1],IC50 [2],IC50 [3] [µM],IC50 [4] [µM],IC50 [5] [µM],Activity [6],Activity [7],Activity [8] [mg/dL],Activity [9] [mg/dL],Activity [10] [mg/dL],Activity [11] [mg/dL],Activity [12] [mg/dL],Activity [13],Activity [14],Activity [15],Activity [16] [mg/dL],Activity [17] [mg/dL],Activity [18] [mg/dL],Activity [19] [mg/dL],further results
CCOC(=O)C1=C(Nc2cccc(F)c2)CC(c2ccc(C(F)(F)F)cc2)N(c2cccc(F)c2)C1c1ccc(C(F)(F)F)cc1 (stereo not drawn),0.814 µM,0.629 µM,0.22,1.19,1.27,Non-Toxic,Active,495.39,422.69,334.29,240.19,152.61,Active,Active,Active,78.67,93.71,51.22,31.06,
O=C1O[C@H]([C@@H](O)CO)C(O)=C1O [ASCORBIC ACID],0.64 µM,,,,,,,,,,,,,,,,,,,
CCOC(=O)C1=C(Nc2ccc(F)cc2)CC(c2ccc(C(F)(F)F)cc2)N(c2ccc(F)cc2)C1c1ccc(C(F)(F)F)cc1 (stereo not drawn),0.633 µM,0.167 µM,0.176,0.932,1.02,Non-Toxic,Active,497.98,417.55,320.81,231.77,138.56,Active,Active,Active,75.05,91.96,47.51,33.51,inhibition [20]: Active; Ki [21]: 117 µM
C[C@H]1O[C@H](O[C@H]2[C@H](O)[C@@H](O)[C@@H](O[C@H]3[C@H](O)[C@@H](O)C(O)O[C@@H]3CO)O[C@@H]2CO)[C@H](O)[C@@H](O)[C@@H]1N[C@H]1C=C(CO)[C@@H](O)[C@H](O)[C@H]1O (stereo partly drawn) [ACARBOSE],,,28.7,,,,,,,,,,,,,,,,,
CCOC(=O)C1=C(Nc2cccc(F)c2)CC(c2ccc(F)cc2)N(c2cccc(F)c2)C1c1ccc(F)cc1 (stereo not drawn),1.1 µM,0.519 µM,0.367,1.42,1.99,,,,,,,,,,,,,,,
CCOC(=O)C1=C(Nc2ccc(F)cc2)CC(c2ccc(F)cc2)N(c2ccc(F)cc2)C1c1ccc(F)cc1 (stereo not drawn),0.691 µM and 0.69 µM,0.022 µM and 0.02 µM,0.251,0.774,0.739,Non-Toxic,Active,501.12,419.93,341.51,256.71,159.45,Active,Active,Active,91.16,97.65,59.16,27.73,inhibition [22]: Active; Ki [23]: 2.05 µM
CCOC(=O)C1=C(Nc2cccc(F)c2)CC(c2ccc(Cl)cc2)N(c2cccc(F)c2)C1c1ccc(Cl)cc1 (stereo not drawn),0.983 µM,0.712 µM,0.384,1.27,1.7,,,,,,,,,,,,,,,
CCOC(=O)C1=C(Nc2ccc(F)cc2)CC(c2cccc(F)c2)N(c2ccc(F)cc2)C1c1cccc(F)c1 (stereo not drawn),0.95 µM,0.562 µM,0.457,1.12,1.33,,,,,,,,,,,,,,,
CCOC(=O)C1=C(Nc2ccccc2)CC(c2ccc(F)cc2)N(c2ccccc2)C1c1ccc(F)cc1 (stereo not drawn),1.05 µM,0.216 µM,0.473,1.36,1.28,,,,,,,,,,,,,,,
Cc1c(C)c2c(c(C)c1O)CCC(C)(C(=O)O)O2 (stereo not drawn) [TROLOX],,0.028 µM,,,,,,,,,,,,,,,,,,
CCOC(=O)C1=C(Nc2ccc(F)cc2)CC(c2ccc(Cl)cc2)N(c2ccc(F)cc2)C1c1ccc(Cl)cc1 (stereo not drawn),1.32 µM,0.461 µM,0.291,0.916,1.02,Non-Toxic,Active,498.7,427.82,349.78,244.27,167.81,Active,Active,Active,87.96,104.2,61.39,28.09,
